Data taken from ChEMBL document CHEMBL1128815, “Uracil-based angiotensin II receptor antagonists” (Bioorg Med Chem Lett, 1995).

Experiments:
[1] = target: T1, Type-1 angiotensin II receptor B (Rattus norvegicus, UniProt P29089); assay: Tested for binding affinity against angiotensin II receptor in rat adrenal cortex; assay type: tissue-based
T1 sequence (P29089 whole entry): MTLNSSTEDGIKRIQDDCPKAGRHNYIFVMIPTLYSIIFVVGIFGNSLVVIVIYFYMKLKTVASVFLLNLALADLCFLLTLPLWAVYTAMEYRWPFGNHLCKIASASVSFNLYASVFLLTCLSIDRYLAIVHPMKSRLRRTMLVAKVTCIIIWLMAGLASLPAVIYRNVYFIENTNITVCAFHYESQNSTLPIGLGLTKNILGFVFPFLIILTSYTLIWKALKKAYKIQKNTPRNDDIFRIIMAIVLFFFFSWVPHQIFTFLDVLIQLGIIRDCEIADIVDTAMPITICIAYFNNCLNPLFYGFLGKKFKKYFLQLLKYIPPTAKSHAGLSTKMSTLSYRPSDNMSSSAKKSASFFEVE

[2] = target: T2, Type-1 angiotensin II receptor (Bos taurus, UniProt P25104); assay: Tested for binding affinity against angiotensin II receptor in bovine adrenal cortex; assay type: tissue-based
T2 sequence (P25104 whole entry): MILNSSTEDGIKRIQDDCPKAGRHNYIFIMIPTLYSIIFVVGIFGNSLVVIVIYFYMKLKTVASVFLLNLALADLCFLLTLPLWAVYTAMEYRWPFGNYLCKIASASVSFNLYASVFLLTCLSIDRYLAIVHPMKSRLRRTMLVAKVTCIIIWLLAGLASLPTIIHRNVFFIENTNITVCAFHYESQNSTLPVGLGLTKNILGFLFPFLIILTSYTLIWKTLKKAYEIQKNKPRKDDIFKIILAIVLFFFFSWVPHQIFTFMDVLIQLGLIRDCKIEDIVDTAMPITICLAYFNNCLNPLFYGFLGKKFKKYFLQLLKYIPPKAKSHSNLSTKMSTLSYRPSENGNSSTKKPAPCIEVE

SMILES | IC50 [1] | IC50 [2]
CCCCc1cc(=O)n2nc(-c3ccccc3)nc2n1Cc1ccc(-c2ccccc2-c2nn[nH]n2)cc1 | 83 nM | 520 nM
CCCc1cc(=O)[nH]c(=O)n1Cc1ccc(-c2ccccc2-c2nn[nH]n2)cc1 | 4.3 nM | 100 nM
CCCCc1nc(Cl)c(CO)n1Cc1ccc(-c2ccccc2-c2nn[nH]n2)cc1 [LOSARTAN] |  | 160 nM
Cn1c(=O)cc(C2CC2)n(Cc2ccc(-c3ccccc3-c3nn[nH]n3)cc2)c1=O |  | 2400 nM
CCCc1cc2ncnn2c(=O)n1Cc1ccc(-c2ccccc2-c2nnn[nH]2)cc1 | 6.2 nM | 62 nM
CCCc1c(C)c(=O)n(C)c(=O)n1Cc1ccc(-c2ccccc2-c2nnn[nH]2)cc1 |  | 6600 nM
CCCCc1cc(=O)n(Cc2ccccc2C(=O)OC)c(=O)n1Cc1ccc(-c2ccccc2-c2nnn[nH]2)cc1 | 2.4 nM | 27 nM
CCCCc1cc(=O)n(C)c(=O)n1Cc1ccc(-c2ccccc2-c2nn[nH]n2)cc1 | 4.5 nM | 44 nM
CCCc1cc(=O)n(CCNC(C)=O)c(=O)n1Cc1ccc(-c2ccccc2-c2nnn[nH]2)cc1 | 3.4 nM | 40 nM
CCCc1cc(=O)n(C)c(=O)n1Cc1ccc(-c2ccccc2-c2nn[nH]n2)cc1 | 17 nM | 55 nM
CCc1cc(=O)n(C)c(=O)n1Cc1ccc(-c2ccccc2-c2nnn[nH]2)cc1 |  | 1000 nM
C=CCn1c(=O)cc(CCC)n(Cc2ccc(-c3ccccc3-c3nnn[nH]3)cc2)c1=O | 3.3 nM | 34 nM

Stronger by IC50 [2], values ahead:

IC50 [1] | IC50 [2] | SMILES
1.4 nM | 23 nM | CCCc1cc(=O)n(CCNC(=O)NC2CCCCC2)c(=O)n1Cc1ccc(-c2ccccc2-c2nnn[nH]2)cc1
0.65 nM | 9.3 nM | CCCc1cc(=O)n(CC(=O)N(C)C)c(=O)n1Cc1ccc(-c2ccccc2-c2nn[nH]n2)cc1
 | 16 nM | CCCCn1c(=O)cc(CCC)n(Cc2ccc(-c3ccccc3-c3nn[nH]n3)cc2)c1=O
 | 25 nM | CCCc1cc(=O)n(Cc2ccccc2)c(=O)n1Cc1ccc(-c2ccccc2-c2nn[nH]n2)cc1
2.3 nM | 20 nM | CCCc1cc(=O)n(Cc2ccccc2C(=O)OC)c(=O)n1Cc1ccc(-c2ccccc2-c2nnn[nH]2)cc1
